This is an account of results in PubChem BioAssay (NCI).

Some test systems named below: HCC-2998 colon; NCI-H23 lung; UACC-62 melanoma; 786-0 renal; UACC-257 melanoma; MDA-MB-231 breast; SNB-19 CNS; SN12C renal; OVCAR-8 ovarian; SK-MEL-28 melanoma.
What all share (experiment): NCI anticancer screen, dose series, 48 h

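The compound was tested at five concentrations on cells cultured in 96-well plates, with a 48-hour exposure period. GI50: concentration for 50% inhibition of growth. TGI: concentration producing complete growth inhibition.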

With `O=C1/C(=C/c2cccc(Br)c2)COc2ccc(O)cc21`, the GI50 in the experiment with HCC-2998 colon is 1.8 µM; in the experiment with NCI-H23 lung, 3.79 µM; in the experiment on UACC-62 melanoma, 2.37 µM; in the experiment with 786-0 renal, 2.08 µM; with UACC-257 melanoma, 3.93 µM; in the experiment on MDA-MB-231 breast, 2.88 µM. In addition, the GI50 was 2.43 µM with SNB-19 CNS, 1.85 µM with SN12C renal, 3.4 µM with OVCAR-8 ovarian and 2.14 µM in the experiment with SK-MEL-28 melanoma. Besides, the TGI with HCC-2998 colon worked out at 3.46 µM; in the experiment with NCI-H23 lung, 15.6 µM; in the experiment with UACC-62 melanoma, 6.35 µM; in the experiment with 786-0 renal, 5.43 µM; in the experiment on UACC-257 melanoma it was 15.9 µM; in the experiment on MDA-MB-231 breast, 9.38 µM. The TGI came to 7.47 µM in the experiment with SNB-19 CNS, 4.28 µM with SN12C renal, 12.9 µM in the experiment with OVCAR-8 ovarian and 5.21 µM in the experiment on SK-MEL-28 melanoma.

Consider `CCOC(=O)Nc1nc2ccc(OC)cc2s1`, for which the GI50 with HCC-2998 colon, with NCI-H23 lung, in the experiment with UACC-62 melanoma, in the experiment with 786-0 renal, with UACC-257 melanoma and in the experiment on MDA-MB-231 breast was over 100 µM each time. The GI50 in the experiment with SNB-19 CNS, in the experiment on SN12C renal, in the experiment with OVCAR-8 ovarian and in the experiment with SK-MEL-28 melanoma was over 100 µM each time. The TGI with HCC-2998 colon, with NCI-H23 lung, with UACC-62 melanoma, in the experiment on 786-0 renal, in the experiment with UACC-257 melanoma and in the experiment on MDA-MB-231 breast was over 100 µM each time. The TGI with SNB-19 CNS, in the experiment on SN12C renal, in the experiment with OVCAR-8 ovarian and in the experiment on SK-MEL-28 melanoma was over 100 µM in each case.

Consider `O=C(/C=C/c1ccccc1)C(Br)C(Br)c1ccccc1` (centres undefined), for which the GI50 was 1.9 µM in the experiment with HCC-2998 colon; 1.64 µM with UACC-62 melanoma; 1.91 µM in the experiment on 786-0 renal; 1.59 µM with UACC-257 melanoma; 1.73 µM with MDA-MB-231 breast; 4.72 µM in the experiment with SNB-19 CNS. Besides, the GI50 is 2 µM in the experiment on SN12C renal, 2.04 µM in the experiment on OVCAR-8 ovarian and 2.04 µM in the experiment on SK-MEL-28 melanoma. Further, the TGI was 3.63 µM in the experiment on HCC-2998 colon; 3.29 µM in the experiment with UACC-62 melanoma; 4.31 µM in the experiment with 786-0 renal; 3.66 µM in the experiment on UACC-257 melanoma; 3.51 µM with MDA-MB-231 breast; 17.7 µM in the experiment with SNB-19 CNS. Further, the TGI stood at 4.65 µM in the experiment with SN12C renal, 6.38 µM with OVCAR-8 ovarian and 4.66 µM with SK-MEL-28 melanoma.

On to `FC(F)(c1ccc2ncccc2c1)c1nnc2ccc(-c3ccncc3)nn12`, for which the GI50 in the experiment with HCC-2998 colon is over 100 µM; in the experiment with NCI-H23 lung, over 100 µM; with UACC-62 melanoma it was over 100 µM; in the experiment with 786-0 renal, 69.3 µM; with UACC-257 melanoma, over 100 µM; with MDA-MB-231 breast, 31 µM. Besides, the GI50 is over 100 µM in the experiment with SNB-19 CNS, 37.1 µM in the experiment with SN12C renal, 84.1 µM with OVCAR-8 ovarian and over 100 µM in the experiment with SK-MEL-28 melanoma. The TGI in the experiment on HCC-2998 colon, in the experiment on NCI-H23 lung, with UACC-62 melanoma, in the experiment on 786-0 renal, in the experiment on UACC-257 melanoma and with MDA-MB-231 breast was over 100 µM in each case. The TGI in the experiment with SNB-19 CNS, in the experiment on SN12C renal, in the experiment on OVCAR-8 ovarian and in the experiment on SK-MEL-28 melanoma was over 100 µM each time.

On to `Cc1[nH]nc(C(F)(F)F)c1N=NN(C)C`, for which the TGI was 31.5 µM in the experiment with HCC-2998 colon; 21.9 µM in the experiment on NCI-H23 lung; 20.6 µM in the experiment with UACC-62 melanoma; 3.09 µM in the experiment with 786-0 renal; 28.2 µM in the experiment on UACC-257 melanoma; 25.4 µM with MDA-MB-231 breast. Also, the TGI was found to be 28.8 µM with SNB-19 CNS, 30.1 µM in the experiment on SN12C renal, 24.6 µM in the experiment on OVCAR-8 ovarian and 33 µM in the experiment with SK-MEL-28 melanoma.

As for `OCc1ccc(N2CCc3cccc(F)c3C2)cc1Cl`, the GI50 is 1.96 µM in the experiment on HCC-2998 colon; 13.9 µM in the experiment with NCI-H23 lung; 16.7 µM with 786-0 renal; 13.4 µM with MDA-MB-231 breast; 30.9 µM in the experiment with SNB-19 CNS; 14.6 µM in the experiment on SN12C renal. Further, the values for the GI50 in the experiment with OVCAR-8 ovarian and in the experiment with SK-MEL-28 melanoma were 5.85 µM and 25.7 µM, respectively. Besides, the TGI in the experiment with HCC-2998 colon is 11 µM; in the experiment on NCI-H23 lung, 40.9 µM; in the experiment with 786-0 renal it was 44.7 µM; in the experiment with MDA-MB-231 breast it was 43.5 µM; with SNB-19 CNS it was over 100 µM; in the experiment with SN12C renal it was over 70.2 µM. For the same compound, the TGI is 41.9 µM with OVCAR-8 ovarian and over 79.7 µM with SK-MEL-28 melanoma.

`C[C@@H]1C[C@H](C)CN(S(=O)(=O)c2ccc3c(NO)c4ccc(S(=O)(=O)N5C[C@H](C)C[C@H](C)C5)cc4c(N=O)c3c2)C1`: the GI50 in the experiment on HCC-2998 colon was 0.122 µM; in the experiment on NCI-H23 lung it was 0.185 µM; in the experiment with UACC-62 melanoma, 0.181 µM; with 786-0 renal it was 0.169 µM; with MDA-MB-231 breast it was 0.0738 µM; in the experiment with SNB-19 CNS, 0.164 µM. Also, the GI50 is 0.17 µM in the experiment with SN12C renal, 0.232 µM with OVCAR-8 ovarian and 0.129 µM in the experiment with SK-MEL-28 melanoma. In addition, the TGI amounted to 0.265 µM in the experiment on HCC-2998 colon; 0.4 µM in the experiment on NCI-H23 lung; 0.345 µM in the experiment with UACC-62 melanoma; 0.309 µM with 786-0 renal; 0.234 µM with MDA-MB-231 breast; 0.353 µM in the experiment with SNB-19 CNS. Also, the TGI is 0.399 µM with SN12C renal, 0.527 µM in the experiment with OVCAR-8 ovarian and 0.276 µM in the experiment with SK-MEL-28 melanoma.

For the compound `COc1ccc2cc(/C=C/C(=O)c3ccc(Cl)cc3Cl)ccc2c1`, the GI50 was 20.6 µM in the experiment with HCC-2998 colon; 47 µM in the experiment with NCI-H23 lung; 21.6 µM with UACC-62 melanoma; 36.7 µM in the experiment with 786-0 renal; 39.5 µM in the experiment on UACC-257 melanoma; 27.3 µM in the experiment with MDA-MB-231 breast. The values for the GI50 in the experiment on SN12C renal and with OVCAR-8 ovarian were 20.3 µM and 26.6 µM, respectively. Further, the TGI is 48.8 µM in the experiment on HCC-2998 colon; over 100 µM with NCI-H23 lung; 79.4 µM in the experiment on UACC-62 melanoma; over 100 µM with 786-0 renal; over 100 µM in the experiment with UACC-257 melanoma; over 100 µM with MDA-MB-231 breast. Besides, the TGI was found to be 50.9 µM in the experiment with SN12C renal and 75.4 µM in the experiment on OVCAR-8 ovarian.

Turning to `COc1cc2c(c(OC)c1OC)-c1ncc3c(OC)c(OC)c(OC)cc3c1C2`, the GI50 was 16.1 µM in the experiment on HCC-2998 colon; 21.1 µM with UACC-62 melanoma; 36.5 µM in the experiment on 786-0 renal; 26.2 µM in the experiment on MDA-MB-231 breast; 40.1 µM in the experiment on SNB-19 CNS; 20.3 µM in the experiment with SN12C renal. For the same compound, the figures for the GI50 in the experiment with OVCAR-8 ovarian and in the experiment on SK-MEL-28 melanoma were 18.9 µM and 34.9 µM, respectively. Further, the TGI in the experiment on HCC-2998 colon was 30.7 µM; in the experiment with UACC-62 melanoma it was 49.3 µM; in the experiment with 786-0 renal, over 100 µM; in the experiment on MDA-MB-231 breast, 86.8 µM; in the experiment on SNB-19 CNS it was over 100 µM; in the experiment with SN12C renal it was 64.8 µM. Further, the TGI in the experiment on OVCAR-8 ovarian was 58.2 µM; with SK-MEL-28 melanoma it was over 100 µM.
